Key:
[1] = SOD activity (McCord and Fridovich); format: biochemical; conditions: In vitro Biochemistry
Experimental: SOD activity can be monitored in the presence and absence of EDTA using the method of McCord and Fridovich (J. Biol. Chem. 244:6049 (1969)). The efficacy of a mimetic can be determined by measuring the effect of the mimetic on the growth of a SOD null E. coli strain versus a wild type strain. Specifically, wild type E. coli (AB1157) and SOD null E. coli. (JI132) can be grown in M9 medium containing 0.2% casamino acids and 0.2% glucose at pH 7.0 and 37° C.; growth can be monitored in terms of turbidity followed at 700 nm spectrophotometrically. Active mimetics can be tested for toxicity in mammalian cell culture by measuring lactate dehydrogenase (LDH) release. Specifically, rat L2 cells (a lung Type II like cell; (Kaighn and Douglas, J. Cell Biol. 59:106a (1973)) can be grown in Ham's F-12 medium with 10% fetal calf serum supplement at pH 7.4 and 37° C.; cells can be seeded at equal densities in 24 well culture dishes and grown to approximately 90% confluence; SOD mimetics can be added to the cells at log doses (eg micromolar doses in minimal essential medium (MEM)) and incubated for 24 hours. Toxicity can be assessed by morphology and by measuring the release of the cytosolic injury marker, LDH (eg on a thermokinetic plate reader), as described by Vassault (In: Methods of Enzymatic Analysis, Bergmeyer (ed) pp. 118-26 (1983); oxidation of NADH is measured at 340 nm). Efficacy of active mimetics can be assessed by determining their ability to protect mammalian cells against methylviologen (paraquat)-induced toxicity. Specifically, rat L2 cells grown as described above and seeded into 24 well dishes can be pre-incubated with various concentrations of the SOD mimetic and then incubated with a concentration of methylviologen previously shown to produce an LC75 in control L2 cells. Efficacy of the mimetic can be correlated with a decrease in the methylviologen-induced LDH release (St. Clair et al, FEBS Lett. 293:199 (1991)). The efficacy of SOD mimetics can be tested in vivo with mouse and/or rat models using both aerosol administration and parenteral injection. For example, male Balb/c mice can be randomized into 4 groups of 8 mice each to form a standard 2×2 contingency statistical model. Animals can be treated with either paraquat (40 mg/kg, ip) or saline and treated with SOD mimetic or vehicle control. Lung injury can be assessed 48 hours after paraquat treatment by analysis of bronchoalveolar lavage fluid (BALF) damage parameters (LDH, protein and % PMN) as previously described (Hampson et al, Tox. Appl. Pharm. 98:206 (1989); Day et al, J. Pharm. Methods 24:1 (1990)). […]
^2SOD activity determined as described by McCord and Fridovich, J. Biol. Chem. […] (1969).

[2] = Catalase activity, Clark oxygen electrode; format: biochemical; conditions: 1 mM hydrogen peroxide; oxygen formation over 2 minutes
From the text: Catalase activity can be monitored by measuring absorbance at 240 nm in the presence of hydrogen peroxide (see Beers and Sizer, J. Biol. Chem. 195:133 (1952)) or by measuring oxygen evolution with a Clark oxygen electrode (Del Rio et al, Anal. Biochem. 80:409 (1977)). Peroxidase activity can be measured spectrophotometrically as previously described by Putter and Becker: Peroxidases. In: Methods of Enzymatic Analysis, H. U. Bergmeyer (ed.), Verlag Chemie, Weinheim, pp. 286-292 (1983. Aconitase activity can be measured as described in Example XI below.
Catalase activity was measured by means of a Clark oxygen electrode using a modified assay previously described by Del Rio et al, Anal. Biochem. 80:409 (1977). Briefly, reactions were performed in a nitrogen degassed phosphate buffer (50 mM, pH 7.8) containing 0.1 mM EDTA at 25° C. Three concentrations of hydrogen peroxide (1-4 mM) and four metalloporphyrin concentrations (0.5-50 μM) were used to determine second order rate constants. The rate of oxygen evolution was followed for 2 minutes.
^3Catalase activity determined as described by Del Rio et al, Anal. Biochem. 80:409 )1977). Metalloporphyrins were assayed at various concentrations in the presence of 1 mM hydrogen peroxide for catalase-like activity. A Clark electrode was used to measure the formation of oxygen from the breakdown of hydrogen peroxide over a period of 2 minutes.

J774 macrophages [3] = experiment: Mitochondrial respiration (MTT) in J774 macrophages; format: cell-based; conditions: LPS-treated and LPS and IFN-treated cells, 24 h
Experimental: (§1) Cell culture: J774 macrophages were cultured in DMEM medium, supplemented with L-glutamine (3.5 mmol/L) and 10% fetal calf serum. Cells were cultured in 96-well plates (200 μl medium/well) until confluence. To induce the inducible isoform of nitric oxide synthase (iNOS), fresh culture medium containing E. coli LPS (011:B4, 10 μg/ml) alone or in combination with murine γ-interferon (γ-IFN, 10 U/ml) was added in the presence or absence of the NOS inhibitor, the SOD mimetic of the combination of the two compounds for 24 h. Moreover, cells were exposed to the NO donor compounds S-nitroso-N-acetyl-DL-penicillamine (SNAP) (3 mM) and diethylamine:NO NONOate (DNO) (3 mM) for 24 h or to authentic peroxynitrite (1 mM) for 1 h). Nitride/nitrate concentration in the medium and mitochondrial respiration were then measured as described below.
Measurement of mitochondrial respiration: Cell respiration was assessed by the mitochondrial-dependent reduction of 3-(4,5-dimethylthiazol-2-yl)-2,5-diphenyltetrazolium bromide (MTT) to formazan. Cells in 96-well plates were incubated at 37° C. with MTT (0.2 mg/ml) for 1 hour. Culture medium was removed by aspiration and the cells were solubilized in DMSO (100 μl). The extent of reduction of MTT to formazan within cells was quantitated by the measurement of OD550. All measurements were corrected for the interference of MnTBAP at this wavelength.

rat cortical cells = experiment: Neurotoxicity (LDH release) in cortical cell culture; format: cell-based
Experimental: (§2) Tissue culture: Mixed neuronal and glial cultures were prepared from embryonic day-18 rat cerebral cortices (Sprague-Dawley, Zivic Miller). Briefly, the cerebral cortices were dissected and enzymatically dissociated by incubation in Ca^++-, Mg^++-free Hank's balanced salt solution (HBSS) supplemented with 10 mM HEPES and 0.25% trypsin for 20 min. at 37° C. The tissue was rinsed and dispersed into single cell suspension by gentle passage through a fire polished Pasteur pipette. The cell suspension was centrifuged and resuspended in Minimum Essential Media (MEM), containing Earle's salts supplemented with 3 g/L glucose, 5% horse serum and 5% fetal bovine serum (growth media). The cells were plated in poly-D-lysine-coated multi-well plates: 12-well plates for aconitase measurement, and 24 well plates for toxicity experiments. Cells were maintained at 37° C. in a humidified incubator with 5% CO2/95% air in growth media. Media was not replaced so as to reduce glial overgrowth and neuronal loss. Mature cells (14-17 days in vitro) were used for all experiments.
(§3) Cell treatment: The growth media was replaced with MEM supplemented with 25 mM glucose (MEM-g). For both neurotoxicity studies and aconitase measurement, cells were incubated in the designated treatment for the indicated length of time at 37° C. Unless otherwise specified, antagonists or SOD-mimetics were added 15 min. prior to agonists. For measurement of neurotoxicity, cells were incubated with treatments for 18 hr at 37° C. in MEM-g. To access the ability of antagonists to inhibit acute NMDA toxicity or rescue cells from an ongoing NMDA insult, an alternate paradigm of NMDA treatment was used in addition to the one describe above. In this paradigm, growth media was replaced with HBSS^+ (Ca^++-, Mg^++-free Hank's Balanced Salt Solution supplemented with 2 mM CaCl2, 1 mM NaHCO3, 10 mM HEPES and 5 μM glycine), cells were treated with vehicle or 100 μM NMDA for 15 min. after which HBSS^+ was replaced with MEM-g and cells were returned to the incubator for 18 additional hrs. Antagonsists or SOD-mimetics were added to the cells 15 min. before NMDA exposure or 15, 30 or 60 min. following final media replacement. For determination of Ca^++-dependence, cells were incubated in HBSS^+ with no added Ca^++. When kainate (KA) was used as an agonist, 100 μM D-APV was routinely included to block secondary NMDA receptor activation. Catalase (100 U/ml) was always included when xanthine plus xanthine oxidase (X+XO) was used as a treatment to rule out the contribution of hydrogen peroxide.
Neurotoxicity studies: Neurotoxicity was determined by the measurement of LDH released in the supernatant media as previously described (Patel et al, Toxicol. Appl. Pharmacol. 115:124 (1991) and Neurotoxicology 14:35 (1992)). LDH was measured by the method of Vassault, Lactate dehydrogenase. In: Methods of Enzymatic Analysis, Bergmeyer HU (ed), Verlag Chemie, Weinheim, pp. 118-126 (1983). Additionally, cell death was confirmed with ethidium-1 homodimer (EthD-1). Briefly, the cells were washed with HBSS, loaded with 20 μM EthD-1 for 30 min,. rinsed and viewed through fluorescence optics. The number of dead cells labeled with EthD-1 were counted in 4-6 randomly selected fields, the numbers averaged to give an estimate of cell death and the experiment was repeated 3 times.

aconitase = experiment: Aconitase activity in cortical cell lysates; format: cell-based, rat; conditions: 1 mM NOS inhibitor
Experimental: as §2, §3
Aconitase measurement: For the measurement of aconitase, following treatment with agents, media was removed and cells lysed in ice-cold 50 mM, Tris/HCl, pH 7.4 containing 0.6 mM MnCl2, 1 mM L-cysteine, 1 mM citrate and 0.5% Triton-X 100. The aconitase activity of cell lysates was measured spectrophotometrically by monitoring the formation of cis-aconitate from isocitrate at 240 nm in 50 mM Tris/HCl, pH 7.4, containing 0.6 mM MnCl2 and 20 mM isocitrate at 25° C. (Kreb and Holzach, Biochem. J. 52:527 (1952); Gardner and Fridovich, J. Biol. Chem. 267:8757 (1992)). […] Aconitase activity in cortical cell lysates was inhibited by 0.1 mM potassium ferricyanide or by boiling of sample.

J774 macrophages [4] = experiment: Nitrite/nitrate production in J774 macrophages; format: cell-based
Experimental: as §1
Measurement of nitrite/nitrate production: Nitride/nitrate production, an indicator of NO synthesis, was measured in the supernatant. First, nitrate in the culture medium was reduced to nitrite by incubation with nitrate reductase (670 mU/ml) and NADPH (160 μM) at room temperature for 2 h. After 2 h, nitrite concentration in the samples were measured by the Griess reaction, by adding 100 μl of Griess reagent (1% sulfanilamide and 0.1% naphthylethylenediamide in 5% phosphoric acid) to 100 μl samples of conditioned medium. The optical density at 550 nm (OD550) was measured using a Spectramax 250 microplate reader (Molecular Devices, Sunnyvale, Calif.) Nitrate concentrations were calculated by comparison with OD550 of standard solutions of sodium nitrate prepared in culture medium. All measurements were corrected for the interference of MnTBAP at this wavelength.

[5] = tested on: Rat pulmonary epithelial cell cultures (L2); experiment: Paraquat-induced injury of L2 cells, LDH release; format: cell-based; conditions: 100 μM; Paraquat 2.5 mM, 48 hours
[6] = tested on: Calf pulmonary endothelial cell (CPA-47) line; experiment: Glucose oxidase hydrogen peroxide injury of CPA-47, Cr^51 release; format: cell-based; conditions: glucose oxidase 100 Mu/ml, 4 hours; 1 hour pretreatment
Experimental: (§4) Calf pulmonary endothelial cell (CPA-47) line was grown to near confluence in 12-well plates with F-12K medium containing 10% fetal calf serum. CPA-47 cells were loaded with Cr^51 as previously described by Simon et al J. Clin. Invest. 78:1375 (1986) in high glucose minimum essential medium (DMEM). Cells were pretreated with MnTBAP (100 μM) for 1 hour and then exposed to various concentrations of hydrogen peroxide generator, glucose oxidase, for 4 hours. Cell injury was then quantitated as the specific Cr^51 release from CPA-47 cells which has been adjusted for spontaneous Cr51 release.
as §4, with “(J.” for “J.”, “(1986))” for “(1986)”, “various concentrations of either: (A) MnTBAP; (B) MnTMPyP; (C) ZnTBAP; or (D) CuZnSOD” for “MnTBAP (100 μM)”, “the” for “various concentrations of”, “oxidase (100 Mu/ml),” for “oxidase,”, “Cr^51” for “Cr51”

3,3′3″,3′″-Tetramethoxy-4,4′,4″,4′″-(porphine-5,10,15,20-tetrayl)tetrakis (benzoic acid) [Compound 10305]
SOD [1]: inactive
Catalase [2]: 2.2 min⁻¹

CNC(=N)NCCC[C@H](N)C(=O)O [L-NMA, N^G-methyl-L-arginine, reference compound]
immunostimulation-induced suppression of mitochondrial respiration (J774 macrophages [3]): restoration of the respiration to an extent comparable with that of 300 μM MnTBAP
NMDA-induced LDH release (rat cortical cells; 1 mM NOS inhibitor): unchanged
NMDA-induced aconitase inactivation (aconitase): unchanged
change of inhibition of nitrite/nitrate accumulation when applied 6 h after LPS (J774 macrophages [4]; LPS-stimulated macrophages): similar
inhibition of the production of NO (J774 macrophages [4]; cells stimulated with LPS or LPS and IFN): near-complete inhibition

Trimethyl 2,2′,2″, 2′″-tetrahydroxy-4-benzoic acid-4″, 4″, 4′″ (porphine -5,10,15,20-tetrayl)tribenzoate manganese (III) chloride [Compound 10303]
SOD [1]: 78 μg/USOD
protection against NMDA-induced excitotoxicity (rat cortical cells; NMDA 50 μM, 25 μM compound): 100%
protection against kainate-induced excitotoxicity (rat cortical cells; kainate 300 μM, 100 μM compound): 100%
Catalase [2]: 1.4 min⁻¹

C[n+]1ccc(-c2c3nc(c(-c4cc[n+](C)cc4)c4ccc([n-]4)c(-c4cc[n+](C)cc4)c4nc(c(-c5cc[n+](C)cc5)c5ccc2[n-]5)C=C4)C=C3)cc1.[Mn+3] [MnTMPyP, Mn(III) tetrakis (1-methy-4-pyridyl)porphyrin]
paraquat-induced LDH release [5]: decrease paraquat-induced LDH release
hydrogen peroxide-induced endothelial cell injury [6]: reduction

Tetra (N,N-dimethyl) 4,4′,4″,4′″-(porphine-5,10,15,20-tetrayl)-tetrakis(benzamide) manganese (III) chloride [Compound 10109]
SOD [1]: 470 μg/USOD
Catalase [2]: 0.59 min⁻¹
